Test results published in patent publication US8586611B2 (priority 2005, dated 2013).
Where two headings read alike, the source gives them in different places.

How the values were obtained:
Type in all cases: in vivo
[1] = tested on: Erysiphe graminis f. sp. tritici; test: Test E: wheat powdery mildew, spray the day before inoculation (disease rating, 100 = 100% disease control)
Method in brief: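 Protective test: spores of E. graminis f. sp. tritici dusted on wheat seedlings one day after run-off spraying of test suspension (acetone/water with 250 ppm surfactant; 200 ppm = 500 g/ha). Ratings after 7 days in growth chamber at 20° C, 100 = full control, 0 = none, relative to controls.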

Phytophthora infestans [2] = test: whole plant or invertebrate; details: for Test C disease rating (100 = 100% disease control, 0 = no disease control): tomato late blight
Plasmopara viticola = test: Test B: grape downy mildew, spray 24 h after inoculation (disease rating, 100 = 100% disease control)
Method in brief: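 This is a curative spray test, applied 24 h after inoculation. Compounds in 50/50 acetone–water with 250 ppm Trem 014 surfactant were sprayed to run-off on P. viticola-infected seedlings, with 200 ppm equating to 500 g/ha. Plants were kept 5 days in a 20 °C growth chamber, then 24 h humid, and scored 0–100 for disease control relative to controls.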

Phytophthora infestans [3] = test: whole plant or invertebrate; details: for Test D disease rating (100 = 100% disease control, 0 = no disease control): tomato late blight
[4] = spray the day before inoculation, compounds without asterisk (not 40 or 10 ppm)
[5] = spray 24 h after inoculation, compounds without asterisk (not 40 or 10 ppm)
[6] = spray 17 h after inoculation, compounds without asterisk (not 40 or 10 ppm)
[7] = Phytophthora infestans, in Solanum lycopersicum, 144 h, read-out: Test C disease rating (100 = 100% disease control, 0 = no disease control)
[8] = Phytophthora infestans, in Solanum lycopersicum, topical, 96 h, read-out: Test D disease rating (100 = 100% disease control, 0 = no disease control)
[9] = sprayed the day before inoculation, 7 days at 20° C., unmarked compounds (no asterisk, not 40 or 10 ppm)
[10] = sprayed the day before inoculation, unmarked compounds (no asterisk, not 40 or 10 ppm)
[11] = sprayed 24 h after inoculation, unmarked compounds (no asterisk, not 40 or 10 ppm)
[12] = sprayed 17 h after inoculation, unmarked compounds (no asterisk, not 40 or 10 ppm)
[13] = spray the day before inoculation, tested at 40 ppm
[14] = spray 24 h after inoculation, tested at 40 ppm
[15] = spray 17 h after inoculation, tested at 40 ppm
[16] = spray the day before inoculation, tested at 10 ppm

Row | Structure (SMILES) | Test E disease rating (100 = 100% disease control, 0 = no disease control) [1, 4] [%] | Test C disease rating (100 = 100% disease control, 0 = no disease control) (Phytophthora infestans [2]; [4]) [%] | Test B disease rating (100 = 100% disease control, 0 = no disease control) (Plasmopara viticola; [5]) [%] | Test D disease rating (100 = 100% disease control, 0 = no disease control) (Phytophthora infestans [3]; [6]) [%] | further results
1 | Cc1cc(C(F)(F)F)nn1CC(=O)N1CCC(c2nc(C(=O)N(C)[C@H](C(=O)O)c3ccccc3)cs2)CC1 [compound 245] | 0 | 47 | 0 | 0 | 
2 | CC[C@H](c1ccccc1)N(C)C(=O)c1csc(C2CCN(C(=O)Cn3nc(C)cc3C)CC2)n1 [compound 118] | 0 | 100 | 99 | 99 | 
3 | CC[C@H](c1ccccc1)N(C)C(=O)c1csc(C2CCN(C(=O)Cc3cc(C(F)(F)F)ccc3Cl)CC2)n1 [compound 114] | 0 | 100 | 99 | 99 | 
4 | Cc1cc(C(F)(F)F)nn1CC(=O)N1CCC(c2nc(C(=O)N(C)[C@@H]3CCCc4ccccc43)co2)CC1 [Compound 151, N-methyl-2-[1-[[5-methyl-3-(trifluoromethyl)-1H-pyrazol-1-yl]acetyl]-4-piperidinyl]-N-[(1R)-1,2,3,4-tetrahydro-1-naphthalenyl]-4-oxazolecarboxamide] |  |  |  |  | pest or weed control at 40 ppm ([1]; Blumeria graminis, topical, 168 h, spray the day before inoculation, tested at 40 ppm, read-out: Test E disease rating (100 = 100% disease control, 0 = no disease control)): 0%; pest or weed control at 40 ppm (Phytophthora infestans [2]; [7]): 100%; pest or weed control at 40 ppm (Plasmopara viticola; Plasmopara viticola, 144 h, spray 24 h after inoculation, tested at 40 ppm, read-out: Test B disease rating (100 = 100% disease control, 0 = no disease control)): 99%; pest or weed control at 40 ppm (Phytophthora infestans [3]; [8]): 99%
5 | COc1cc2c(cc1OC)CN(C(=O)c1csc(C3CCN(C(=O)Cn4nc(C(F)(F)F)cc4C)CC3)n1)CC2 [compound 297] |  |  |  |  | Test E disease rating (100 = 100% disease control, 0 = no disease control) [1, 9]: 0; Test C disease rating (100 = 100% disease control, 0 = no disease control) (Phytophthora infestans [2]; [10]): 63; Test B disease rating (100 = 100% disease control, 0 = no disease control) (Plasmopara viticola; [11]): 39; Test D disease rating (100 = 100% disease control, 0 = no disease control) (Phytophthora infestans [3]; [12]): 33
6 | COc1ccccc1NC(=O)N1CCC(c2nc(C(=O)N(C)[C@H](C)c3ccccc3)co2)CC1 [compound 157] | 0 | 100 | 63 | 91 | 
7 | CN(C(=O)c1csc(C2CCN(C(=O)Cc3cccc(Cl)n3)CC2)n1)[C@@H]1CCCc2ccccc21 [compound 214] | 0 | 99 | 98 | 99 | 
8 | Cc1cccnc1CC(=O)N1CCC(c2nc(C(=O)N(C)[C@@H]3CCCc4ccccc43)cs2)CC1 [compound 204] | 0 | 99 | 16 | 98 | 
9 | COc1cccc2c1CCCC2N(C)C(=O)c1csc(C2CCN(C(=O)Cn3nc(C(F)(F)F)cc3C)CC2)n1 (centres unmarked) [compound 196] |  |  |  |  | Test E disease rating (100 = 100% disease control, 0 = no disease control) [1, 13]: 0%; Test C disease rating (100 = 100% disease control, 0 = no disease control) (Phytophthora infestans [2]; [13]): 100%; Test B disease rating (100 = 100% disease control, 0 = no disease control) (Plasmopara viticola; [14]): 97%; Test D disease rating (100 = 100% disease control, 0 = no disease control) (Phytophthora infestans [3]; [15]): 99%
10 | CN(Cc1ccccn1)C(=O)c1csc(C2CCN(C(=O)Cc3cccc(C(F)(F)F)c3)CC2)n1 [compound 168] | 0 | 8 | 15 | 0 | 
11 | Cc1cc(C(F)(F)F)nn1CC(=O)N1CCC(c2csc(C(=O)N(C)[C@@H]3CCCc4ccccc43)n2)CC1 [compound 223] |  |  |  |  | Test E disease rating (100 = 100% disease control, 0 = no disease control) [1, 13]: 0%; Test C disease rating (100 = 100% disease control, 0 = no disease control) (Phytophthora infestans [2]; [13]): 100%; Test B disease rating (100 = 100% disease control, 0 = no disease control) (Plasmopara viticola; [14]): 99%; Test D disease rating (100 = 100% disease control, 0 = no disease control) (Phytophthora infestans [3]; [15]): 99%
12 | Cc1cc(C(F)(F)F)nn1CC(=O)N1CCC(c2cc(C(=O)N(C)[C@@H]3CCCc4ccccc43)on2)CC1 [compound 203] | 0 | 100 | 94 | 99 | 
13 | CCN(C(=O)c1csc(C2CCN(C(=O)Cc3cc(C)ccc3C)CC2)n1)[C@H](C)c1ccccc1 [compound 286] |  |  |  |  | Test E disease rating (100 = 100% disease control, 0 = no disease control) [1, 9]: 52; Test C disease rating (100 = 100% disease control, 0 = no disease control) (Phytophthora infestans [2]; [10]): 23; Test B disease rating (100 = 100% disease control, 0 = no disease control) (Plasmopara viticola; [11]): 39; Test D disease rating (100 = 100% disease control, 0 = no disease control) (Phytophthora infestans [3]; [12]): 0
14 | Cc1cccc(CC(=O)N2CCC(c3nc(C(=O)N(C)Cc4ccccn4)cs3)CC2)c1 [compound 165] | 0 | 14 | 11 | 0 | 
15 | Cc1cc(C(F)(F)F)nn1CC(=O)N1CCC(c2nc(C(=O)N(C)C3CCOc4ccccc43)cs2)CC1 (centres unmarked) [compound 179] |  |  |  |  | Test E disease rating (100 = 100% disease control, 0 = no disease control) [1, 16]: 0%; Test C disease rating (100 = 100% disease control, 0 = no disease control) (Phytophthora infestans [2]; [16]): 100%; Test B disease rating (100 = 100% disease control, 0 = no disease control) (Plasmopara viticola; spray 24 h after inoculation, tested at 10 ppm): 96%; Test D disease rating (100 = 100% disease control, 0 = no disease control) (Phytophthora infestans [3]; spray 17 h after inoculation, tested at 10 ppm): 87%
16 | Cc1ccc(C)c(CC(=O)N2CCC(c3nc(C(=O)N(C(C)C)[C@H](C)c4ccccc4)cs3)CC2)c1 [compound 285] |  |  |  |  | Test E disease rating (100 = 100% disease control, 0 = no disease control) [1, 9]: 0; Test C disease rating (100 = 100% disease control, 0 = no disease control) (Phytophthora infestans [2]; [10]): 25; Test B disease rating (100 = 100% disease control, 0 = no disease control) (Plasmopara viticola; [11]): 10; Test D disease rating (100 = 100% disease control, 0 = no disease control) (Phytophthora infestans [3]; [12]): 0
17 | Cc1ccc(C)c(CC(=O)N2CCC(c3nc(C(=O)N(C)[C@H](C)c4cccc(C(F)(F)F)c4)cs3)CC2)c1 [compound 56] | 0 | 93 | 31 | 0 | 
18 | CN(C(=O)c1csc(C2CCN(C(=O)Cn3nc(Cl)cc3Cl)CC2)n1)[C@@H]1CCCc2ccccc21 [Compound 238, 2-[1-[(3,5-dichloro-1H-pyrazol-1-yl)acetyl]-4-piperidinyl]-N-methyl-N-[(1R)-1,2,3,4-tetrahydro-1-naphthalenyl]-4-thiazolecarboxamide] |  |  |  |  | pest or weed control at 10 ppm ([1]; Blumeria graminis, topical, 168 h, spray the day before inoculation, tested at 10 ppm, read-out: Test E disease rating (100 = 100% disease control, 0 = no disease control)): 0%; pest or weed control at 10 ppm (Phytophthora infestans [2]; [7]): 100%; pest or weed control at 10 ppm (Plasmopara viticola; Plasmopara viticola, 144 h, spray 24 h after inoculation, tested at 10 ppm, read-out: Test B disease rating (100 = 100% disease control, 0 = no disease control)): 100%; pest or weed control at 10 ppm (Phytophthora infestans [3]; [8]): 99%
19 | COC1CCC(N(C)C(=O)c2csc(C3CCN(C(=O)Cn4nc(C(F)(F)F)cc4C)CC3)n2)c2ccccc21 (centres unmarked) [compound 213] |  |  |  |  | Test E disease rating (100 = 100% disease control, 0 = no disease control) [1, 13]: 0%; Test C disease rating (100 = 100% disease control, 0 = no disease control) (Phytophthora infestans [2]; [13]): 100%; Test B disease rating (100 = 100% disease control, 0 = no disease control) (Plasmopara viticola; [14]): 99%; Test D disease rating (100 = 100% disease control, 0 = no disease control) (Phytophthora infestans [3]; [15]): 99%
20 | Cc1ccc(C)c(CC(=O)N2CCC(c3nc(C(=O)N(C)C4CCCc5sccc54)cs3)CC2)c1 (centres unmarked) [compound 134] | 0 | 51 | 97 | 100 | 
